Literature values in patent US20170128482A1, “MODIFIED RELEASE PHARMACEUTICAL COMPOSITIONS OF […] RIBAVIRIN” (SANOVEL ILAC SANAYI VE TICARET A.S., priority 2014, published 2017).

Experiments:
[1] = tested on: chronic hepatitis C (CHC) infections / HCV; details: ribavirin alone

Compound | sustained virologic response [1] | HCV RNA levels ([1]; during or after therapy) | alanine aminotransferase (ALT) levels ([1]; during the course of treatment, some patients with CHC) | metabolism by Cytochrome P450 (CYP450) (Cytochrome P450 (CYP450))
1-β-Dribofuranosyl-1H-1,2,4-triazole-3-carboxamide [Ribavirin] | did not produce any sustained virologic response | did not reduce | transiently | –
CC(C)OC(=O)[C@H](C)N[P@](=O)(OC[C@H]1O[C@@H](n2ccc(=O)[nH]c2=O)[C@](C)(F)[C@@H]1O)Oc1ccccc1 [Sofosbuvir, (S)-Isopropyl 2-((S)-(((2R,3R,4R,5R)-5-(2,4-dioxo3,4-dihydropyrimidin-1(2H)-yl)-4-fluoro-3-hydroxy-4-methyltetrahydrofuran-2yl)methoxy)-(phenoxy)phosphorylamino)propanoate] | – | – | – | not metabolized
